Measurements published in ChEMBL document CHEMBL3045446, “In vitro antimicrobial and antimycobacterial activity of some chalcones and their derivatives” (2013).
Values after ≈ are worked out from the molar mass of the structure shown.

Assays:
Type in all cases: functional
[1] = test system: Aspergillus fumigatus; test: Antimicrobial activity against Aspergillus fumigatus MTCC 343 assessed as diameter of growth inhibition zone after 48 hr
[2] = test system: Candida albicans; test: Antimicrobial activity against Candida albicans MTCC 183 assessed as growth inhibition after 48 hr by agar streak dilution method; conditions: MTCC 183, 48 h
[3] = test system: Aspergillus clavatus; test: Antimicrobial activity against Aspergillus clavatus MTCC 1323 assessed as growth inhibition after 48 hr by agar streak dilution method; conditions: MTCC 1323, 48 h
[4] = test system: Aspergillus fumigatus; test: Antimicrobial activity against Aspergillus fumigatus MTCC 343 assessed as growth inhibition after 48 hr by agar streak dilution method; conditions: MTCC 343, 48 h
[5] = test system: Pseudomonas aeruginosa; test: Antimicrobial activity against Pseudomonas aeruginosa MTCC 741 assessed as growth inhibition after 24 hr by agar streak dilution method; conditions: MTCC 741, 24 h
[6] = test system: Shigella flexneri; test: Antimicrobial activity against Shigella flexneri MTCC1457 assessed as growth inhibition after 24 hr by agar streak dilution method; conditions: MTCC1457, 24 h
[7] = test system: Candida albicans; test: Antimicrobial activity against Candida albicans MTCC 183 assessed as diameter of growth inhibition zone after 48 hr
[8] = test system: Pseudomonas aeruginosa; test: Antimicrobial activity against Pseudomonas aeruginosa MTCC 741 assessed as diameter of growth inhibition zone after 24 hr
[9] = test system: Salmonella typhi; test: Antimicrobial activity against Salmonella enterica subsp. enterica serovar Typhi MTCC 733 assessed as diameter of growth inhibition zone after 24 hr
[10] = test system: Staphylococcus aureus; test: Antimicrobial activity against Staphylococcus aureus MTCC 96 assessed as diameter of growth inhibition zone after 24 hr
[11] = test system: Klebsiella pneumoniae; test: Antimicrobial activity against Klebsiella pneumoniae MTCC 109 assessed as diameter of growth inhibition zone after 24 hr
[12] = test system: Salmonella typhi; test: Antimicrobial activity against Salmonella enterica subsp. enterica serovar Typhi MTCC 733 assessed as growth inhibition after 24 hr by agar streak dilution method; conditions: MTCC 733, 24 h
[13] = test system: Aspergillus clavatus; test: Antimicrobial activity against Aspergillus clavatus MTCC 1323 assessed as diameter of growth inhibition zone after 48 hr
[14] = test system: Aspergillus niger; test: Antimicrobial activity against Aspergillus niger MTCC 282 assessed as diameter of growth inhibition zone after 48 hr
[15] = test system: Bacillus cereus; test: Antimicrobial activity against Bacillus cereus MTCC 430 assessed as growth inhibition after 24 hr by agar streak dilution method; conditions: MTCC 430, 24 h
[16] = test system: Proteus vulgaris; test: Antimicrobial activity against Proteus vulgaris MTCC 1771 assessed as growth inhibition after 24 hr by agar streak dilution method; conditions: MTCC 1771, 24 h
[17] = test system: Bacillus cereus; test: Antimicrobial activity against Bacillus cereus MTCC 430 assessed as diameter of growth inhibition zone after 24 hr
[18] = test system: Proteus vulgaris; test: Antimicrobial activity against Proteus vulgaris MTCC 1771 assessed as diameter of growth inhibition zone after 24 hr
[19] = test system: Aspergillus niger; test: Antimicrobial activity against Aspergillus niger MTCC 282 assessed as growth inhibition after 48 hr by agar streak dilution method; conditions: MTCC 282, 48 h
[20] = test system: Escherichia coli; test: Antimicrobial activity against Escherichia coli MTCC 739 assessed as diameter of growth inhibition zone after 24 hr
[21] = test system: Mycobacterium tuberculosis; test: Antituberculosis activity against Mycobacterium tuberculosis H37Rv assessed as growth inhibition after 12 to 28 days by L-J MIC method; conditions: for MIC: Mycobacterium tuberculosis, H37Rv
[22] = test system: Escherichia coli; test: Antimicrobial activity against Escherichia coli MTCC 739 assessed as growth inhibition after 24 hr by agar streak dilution method; conditions: MTCC 739, 24 h
[23] = test system: Staphylococcus aureus; test: Antimicrobial activity against Staphylococcus aureus MTCC 96 assessed as growth inhibition after 24 hr by agar streak dilution method; conditions: MTCC 96, 24 h
[24] = test system: Klebsiella pneumoniae; test: Antimicrobial activity against Klebsiella pneumoniae MTCC 109 assessed as growth inhibition after 24 hr by agar streak dilution method; conditions: MTCC 109, 24 h
[25] = test system: Shigella flexneri; test: Antimicrobial activity against Shigella flexneri MTCC1457 assessed as diameter of growth inhibition zone after 24 hr

Structure (SMILES)	diameter of the inhibition zone (DIZ) [1] [mm]	MIC [2] [µg/mL]	MIC [3] [µg/mL]	MIC [4] [µg/mL]	MIC [5] [µg/mL]	MIC [6] [µg/mL]	diameter of the inhibition zone (DIZ) [7] [mm]	diameter of the inhibition zone (DIZ) [8] [mm]	diameter of the inhibition zone (DIZ) [9] [mm]	diameter of the inhibition zone (DIZ) [10] [mm]	diameter of the inhibition zone (DIZ) [11] [mm]	MIC [12] [µg/mL]	diameter of the inhibition zone (DIZ) [13] [mm]	diameter of the inhibition zone (DIZ) [14] [mm]	MIC [15] [µg/mL]	MIC [16] [µg/mL]	diameter of the inhibition zone (DIZ) [17] [mm]	diameter of the inhibition zone (DIZ) [18] [mm]	growth inhibition (GI) [21] [%]	MIC [21] [µg/mL]	other results
O=C(/C=C/c1ccc(F)cc1)c1ccc(Nc2cc(=O)oc3ccccc23)cc1	19	100 (≈ 259 µM)	100 (≈ 259 µM)	50 (≈ 130 µM)	100 (≈ 259 µM)	100 (≈ 259 µM)	13	16	17	18	17	100 (≈ 259 µM)	15	17	25 (≈ 64.9 µM)	50 (≈ 130 µM)	19	18	97	250 (≈ 649 µM)	MIC [19]: 50 µg/mL (≈ 130 µM); diameter of the inhibition zone (DIZ) [20]: 18 mm; MIC [22]: 50 µg/mL (≈ 130 µM); MIC [23]: 50 µg/mL (≈ 130 µM); MIC [24]: 100 µg/mL (≈ 259 µM); diameter of the inhibition zone (DIZ) [25]: 14 mm
N#Cc1c(-c2ccc(O)cc2O)cc(-c2ccc(Nc3cc(=O)oc4ccccc34)cc2)nc1N	25	12.5 (≈ 27 µM)	6.25 (≈ 13.5 µM)	6.25 (≈ 13.5 µM)	6.25 (≈ 13.5 µM)	6.25 (≈ 13.5 µM)	23	27	28	22	30	3.12 (≈ 6.75 µM)	27	22	6.25 (≈ 13.5 µM)	12.5 (≈ 27 µM)	26	23	97	100 (≈ 216 µM)	MIC [19]: 12.5 µg/mL (≈ 27 µM); diameter of the inhibition zone (DIZ) [20]: 24 mm; MIC [22]: 12.5 µg/mL (≈ 27 µM); MIC [23]: 12.5 µg/mL (≈ 27 µM); MIC [24]: 3.12 µg/mL (≈ 6.75 µM); diameter of the inhibition zone (DIZ) [25]: 26 mm
CC(=O)N1N=C(c2ccc(Nc3cc(=O)oc4ccccc34)cc2)CC1c1ccccc1 (stereo not given)	13	100 (≈ 236 µM)	100 (≈ 236 µM)	100 (≈ 236 µM)	100 (≈ 236 µM)	100 (≈ 236 µM)	12	10	13	<10	11	100 (≈ 236 µM)	16	<10	100 (≈ 236 µM)	100 (≈ 236 µM)	13	13	95	1000 (≈ 2360 µM)	MIC [19]: 100 µg/mL (≈ 236 µM); diameter of the inhibition zone (DIZ) [20]: <10 mm; MIC [22]: 100 µg/mL (≈ 236 µM); MIC [23]: 100 µg/mL (≈ 236 µM); MIC [24]: 100 µg/mL (≈ 236 µM); diameter of the inhibition zone (DIZ) [25]: <10 mm
Cc1ccc(-c2cc(-c3ccc(Nc4cc(=O)oc5ccccc45)cc3)nc(N)c2C#N)cc1	21	3.12 (≈ 7.02 µM)	25 (≈ 56.2 µM)	25 (≈ 56.2 µM)	12.5 (≈ 28.1 µM)	12.5 (≈ 28.1 µM)	28	22	21	21	18	25 (≈ 56.2 µM)	20	24	25 (≈ 56.2 µM)	12.5 (≈ 28.1 µM)	23	24	98	100 (≈ 225 µM)	MIC [19]: 12.5 µg/mL (≈ 28.1 µM); diameter of the inhibition zone (DIZ) [20]: 20 mm; MIC [22]: 25 µg/mL (≈ 56.2 µM); MIC [23]: 25 µg/mL (≈ 56.2 µM); MIC [24]: 50 µg/mL (≈ 112 µM); diameter of the inhibition zone (DIZ) [25]: 25 mm
NNC(=O)c1ccncc1 [ISONIAZID]	–	–	–	–	–	–	–	–	–	–	–	–	–	–	–	–	–	–	99	0.2 (≈ 1.46 µM)	–
CO[C@H]1/C=C/O[C@@]2(C)Oc3c(C)c(O)c4c(O)c(c(/C=N/N5CCN(C)CC5)c(O)c4c3C2=O)NC(=O)/C(C)=C\C=C\[C@H](C)[C@H](O)[C@@H](C)[C@@H](O)[C@@H](C)[C@H](OC(C)=O)[C@@H]1C [RIFAMPIN]	–	–	–	–	–	–	–	–	–	–	–	–	–	–	–	–	–	–	99	0.25 (≈ 0.304 µM)	–
CC(=O)N1CCN(c2ccc(OCC3COC(Cn4ccnc4)(c4ccc(Cl)cc4Cl)O3)cc2)CC1 (stereo not given) [KETOCONAZOLE]	29	1 (≈ 1.88 µM)	1 (≈ 1.88 µM)	1 (≈ 1.88 µM)	–	–	33	–	–	–	–	–	31	30	–	–	–	–	–	–	MIC [19]: ≤ 3 µg/mL
O=C(O)c1cn(C2CC2)c2cc(N3CCNCC3)c(F)cc2c1=O [CIPROFLOXACIN]	–	–	–	–	1 (≈ 3.02 µM)	≤ 3	–	33	30	30	33	1 (≈ 3.02 µM)	–	–	1 (≈ 3.02 µM)	1 (≈ 3.02 µM)	31	31	–	–	diameter of the inhibition zone (DIZ) [20]: 32 mm; MIC [23]: 1 µg/mL (≈ 3.02 µM); MIC [24]: 1 µg/mL (≈ 3.02 µM); diameter of the inhibition zone (DIZ) [25]: 32 mm
CC[C@@H](CO)NCCN[C@@H](CC)CO [ETHAMBUTOL]	–	–	–	–	–	–	–	–	–	–	–	–	–	–	–	–	–	–	99	3.12 (≈ 15.3 µM)	–
NC(=O)c1cnccn1 [PYRAZINAMIDE]	–	–	–	–	–	–	–	–	–	–	–	–	–	–	–	–	–	–	99	6.25 (≈ 50.8 µM)	–
